From a melting point compilation (Tetko et al.; mined from patent text by program, amines drawn as free bases though some values may be those of a salt)

Compound	melting point [°C]
O=C(Cc1cccc2ccccc12)Nc1cc([C@H]2C[C@@H](NC(=O)c3cccc(C(F)(F)F)c3)C2)[nH]n1	143
CCCCCCCCCCNC(=O)c1cc(N)cc(C(=O)NCCCCCCCCCC)c1	188 to 189
COc1cc2c(c(OC)c1OC)CCC(C(=O)Cc1cccc(F)c1)C2C#N (stereo not given)	120 to 122
O=C(Nc1ccc2c(c1)OC(F)(F)O2)N1CC(c2ccc(Cl)cc2)=C(c2ccc(Cl)cc2)N1	150 to 155
O=C(NCCCCN1CCCC1)Nc1snc(OCc2c(F)cc(Br)cc2F)c1C(=O)O	208
COC/C(=C1/SC(=O)NC1=O)c1cccc2ccccc12	133 to 134
CS(=O)(=O)c1ccc(-c2nn(Cc3ccncc3)c(=O)cc2-c2ccc(F)cc2)cc1	253 to 254
CCc1c2c(nn1CC)c(N)nc1ncccc12	286 to 288
NC(CSCc1ccccc1C(=O)O)C(=O)O (stereo not given)	252 to 254
CCc1cccc(C)c1NCN1CCOC1=O	56 to 57.5
O=C1Cc2c(ccc3ccccc23)C(c2ccccc2F)N1 (stereo not given)	259 to 261
COc1ccc2c(Cl)c(C(=O)Cl)sc2c1	120 to 121
COc1ccc(CN2CCC(=C3c4ccc(Cl)cc4CCc4cccnc43)CC2)cn1	60.2 to 64.1
Oc1cc(O)n2nc(-c3ccc(F)cc3)c(-c3ccncc3)c2n1	> 250
CC1CC(C(=O)Nc2ccccc2)(C(=O)OC(C)(C)C)N(C(=O)CNC(=O)OC(C)(C)C)C1c1ccccc1 (stereo not given)	182
CCOC(=O)C(C#N)C(=O)c1nn(-c2ccccc2)c2c1COc1ccccc1-2 (stereo not given)	176 to 178
Cc1sc(-c2ccccc2)nc1CCOc1ccc(C[C@@H](C(=O)O)n2cccc2)cc1	157 to 158
CC(C)CNC(=O)C1=C(C(=O)Nc2cc(OC3CCC(C)C3)c(Cl)cc2F)CCCC1 (stereo not given)	144 to 147
CC(C)(CCc1nnn[nH]1)c1ccc(C(=O)Nc2cn3cc(Cl)ccc3n2)cc1	250 to 251
COc1ccc(-c2[nH]nc3c2C(=O)c2c(NC(=O)C(C)C)cccc2-3)cc1	288
CC(=O)Nc1nc(CCc2ccc(CO)cc2)cs1	162 to 165
COc1ccc2[nH]cc(CC(=O)N3CCN(c4ccc([N+](=O)[O-])cc4)CC3)c2c1	239 to 240
O=C(Nc1cc(CN2CCCCC2)c(O)c(CN2CCCCC2)c1)c1ccccc1	138 to 140
CCCCc1ccc(-c2cnc(-c3ccc(C#N)cc3)nc2)cc1	94.7
CN1CCN(c2nc3ccccc3[nH]2)CC1	222 to 224

Compound	melting point [°C]
CCNC(=O)Nc1ccc(C#Cc2ccc(N3CC4CCC(C3)N4C)nn2)cc1	269
CN(C)S(=O)(=O)c1c(S(N)(=O)=O)c(C(C)(C)C)cn1C	98 to 101
COC(=O)c1cn(C(c2ccccc2)(c2ccccc2)c2ccccc2)nn1	189 to 190
O=C(O)c1cccc(NC(=O)C(CS)CC2CN(Cc3ccccc3)CCO2)c1 (stereo not given)	110 to 112
CCOC(=O)c1cn(-c2ncc(F)c(NC(C)(C)C)n2)c2c(Cl)c(F)c(F)cc2c1=O	201 to 205
CCc1ccccc1NC=C1C(=O)N(c2cccc(-c3nnn[nH]3)c2)N=C1C	262
O=C(NC(Cc1ccccc1Cl)C(=O)N1CCSC1)c1cc2cc(Cl)ccc2[nH]1 (stereo not given)	214 to 216
COc1ccc(S(=O)(=O)NC(C)c2cc(F)ccc2-c2ccc(F)cc2F)c(OC)c1 (stereo not given)	192 to 194
O=C(Nc1ccccc1)c1ccccc1Cl	96.4 to 98.3
Cc1ccc2[nH]ncc2c1N	197 to 200
Cc1ccc(S(N)(=O)=O)cc1-c1nc(C(F)(F)F)oc1-c1ccccc1	150 to 151
COc1ccc(C2=NN(c3ccc(C(=O)O)cc3)C(=O)C(C)(C)C2)cc1OC	196 to 198
Cc1cc(Oc2ccc(Cc3ccccc3)cc2)cc(C)c1N	61 to 63
CCC(C(=O)N(C)C)n1cc(C)c(-c2ccccc2OC)n1 (stereo not given)	79 to 81
Cc1c(SCCN(C)Cc2ccccc2)ccnc1CSc1nc2ccccc2[nH]1	110 to 112
CSc1c(C)c(-c2ncc(Cl)cc2F)nn1C	61 to 64
Cc1nc2ccc3cccnc3c2nc1C	159 to 162
CCOc1nn(Cc2ccnc(OCc3nc(-c4ccccc4)oc3C)c2)cc1CCC(=O)O	114 to 115
COc1ccc(C2(C#Cc3ccc(C(=O)O)cc3)CCC(=O)CC2)cc1OC1CCCC1	170 to 171
CC(=O)Nc1ccc(C(=O)c2cccnc2)cc1	215
CCCCn1c(-c2ccccc2)nc(Cl)c1CC(=O)O	189 to 190
Cc1nc2ccc3c(c2s1)C(=CC#N)CC3	194 to 195
CCOC(=O)C(O)(CC(=O)c1ccc(-n2ccnc2)cc1)C(=O)OCC	155 to 156
Cc1ccc(-c2nc3ccc(N(C)C)cn3c2CN(C)C(=O)CC(C)C)cc1	200 to 202
O=C(Nc1ccccc1N1CCc2ccccc21)c1ccncc1	120 to 121

Compound	melting point [°C]
O=C(CCNC1CC1)Nc1cc(-c2nnc(SCc3cccc(F)c3)o2)ccn1	102 to 103
O=[N+]([O-])c1cn2c(n1)OC(COc1ccc(N3CCC(Cc4cc5cc(OC(F)(F)F)ccc5o4)CC3)cc1)CC2 (stereo not given)	142 to 143
O=C(Cl)c1sc2ccc(OCc3ccccc3)cc2c1Cl	139 to 142
O=S(=O)(C1CC1)C(F)(F)C(O)(Cn1cncn1)c1ccc(F)cc1F (stereo not given)	130 to 132
CN(C)Cc1cc(Cc2ccccc2)c(O)c(Cc2ccccc2)c1	112 to 114
COC(=O)C(=O)c1ccc(OCCCOc2ccccc2)cc1	61 to 62
CC(Oc1ccc(N)c([N+](=O)[O-])c1)c1cc(F)ccc1Cl (stereo not given)	110
COc1ccc(C2=NN(C3CCN(C(=O)c4cccnc4)CC3)C(=O)CC2)cc1OC	162 to 164
OC(CNc1ccnc2cc(Cl)ccc12)c1ccccc1 (stereo not given)	221 to 222
O=C1NCC=NN1c1cc(C(F)(F)F)cc(Cl)n1	197 to 198
COCc1cnc2c(NC(=O)c3ccccc3C(F)(F)F)cccc2c1-n1ccnc1	126 to 127
CC(=NOCCc1ccc(C)cc1)C(=O)O	106 to 108
CC(C)c1cc(-c2ccccn2)c(-c2ccc(F)cc2)n1CCC=O	120 to 122
CCCc1c(OCCCCCC(=O)NCCCCc2ccccn2)ccc(C(C)=O)c1O	63 to 66
O=C1CCC(C(=O)Nc2ccccc2C(=O)c2ccccc2)O1 (stereo not given)	100 to 102
CC(C)OC(=O)C=CC1C(C(=O)O)C1(C)C (stereo not given)	98
CCN1CCN(c2cc(-c3ccccc3)c3ccccc3n2)CC1	87 to 88
O=C(O)c1ccc2c(CCNCc3cccc(OCC(F)(F)F)c3)c[nH]c2c1	232 to 235
C=CCc1ccc2oc(C(=O)OCC)c(C)c2c1O	123
CCOC(=O)COc1ccc(NS(C)(=O)=O)c(C)c1	93 to 94
CCOC(=O)c1cnc2c(S)cccn2c1=O	151 to 152
O=C(O)c1cccc2cc(Sc3cc(Cl)ncn3)ccc12	209
O=S(=O)(O)c1cncc(Br)c1	> 300
Nc1cccc(-c2ccc(CCN3CCN(C(=O)Cc4ccc(F)cc4)CC3)cc2)n1	143 to 145
CC1(C)CCSc2ccc(-c3cc(-c4ccc(C(=O)O)cc4)ccc3-c3ccccc3)cc21	51

Compound	melting point [°C]
Nc1ccc(Oc2ccc(Oc3ccc(N)c(O)c3)cc2)cc1O	> 220
Clc1cnn2c(-c3cccnc3)ccnc12	225 to 226
CCCCc1c(C(=O)c2ccc(O)cc2)c2cc([N+](=O)[O-])ccc2n1C	198
COC(=O)Nc1cccc(C)c1COc1cccn2c(C=O)c(C)nc12	196 to 198
COc1ccc2c3c(c(=O)oc2c1)CN(Cc1ccccc1)CC3	118 to 120
O=C(Nc1ccc(Cl)cc1)O[C@@H]1CN=C(c2ccccc2)O[C@H]1c1ccccc1 (racemic)	124
ClCc1nccn1Cc1ccccc1	180 to 182
COc1ccc(S(=O)(=O)c2ncoc2C(C)C)cc1	98 to 100
COc1ccccc1N1CCN(CCCNC(=O)c2cccc3c(=O)c(C)c(-c4cccnc4)oc23)CC1	134 to 137
Oc1cc2c(cc1CNc1ccccc1)OCC2	130 to 131
Cn1cc(Br)cc(Nc2cc3n(n2)CCOC3)c1=O	195 to 197
CN1CC(C(=O)CO)CC2c3cccc4[nH]cc(c34)CC21 (stereo not given)	202 to 203
NC(=O)c1c(F)ccc(F)c1N	121 to 123
CCOC(=O)C=C(C)Nc1ccc(OC)c(OC)c1	57 to 58
CC(=O)OC1CSC(Oc2cncc(-c3cccnc3F)c2)C(OC(C)=O)C1OC(C)=O (stereo not given)	169 to 170
Cc1[nH]nc(Oc2ccc(C(F)(F)F)cc2[N+](=O)[O-])c1C	92 to 95
Cc1cc(C)cc(C(=O)c2c(C(C)C)c(=O)[nH]c(=O)n2Cc2ccnc(Cl)n2)c1	197 to 198
CCOC(=O)C(=O)c1c[nH]c2ccc(Br)cc12	182 to 183
CC1CC(=O)N(c2ccccc2)c2cc(Cl)ccc2N1C (stereo not given)	113 to 114
CC(C)CCC(O)C(CC1CCCCC1)NC(=O)C(Cc1c[nH]cn1)N(C)C(=O)C(Cc1ccccc1)OC(=O)N1CCOCC1 (stereo not given)	91 to 95
CN1CCC(c2c[nH]c3ccc(-c4cccs4)cc23)C1 (stereo not given)	166 to 168
CCOC(=O)c1cn(Cc2ccc(OCc3nc(-c4ccco4)oc3C)cc2)nc1OCc1ccc(OCc2nc(-c3ccco3)oc2C)cc1	133 to 134
COc1ccc(CNc2ncnc3c2ncn3C2OC(Cn3cc(Cc4ccccc4)nn3)C(O)C2O)cc1 (stereo not given)	123 to 124
COc1cc2nc(O)nc(O)c2c(OC)c1OC	> 250
CC(=O)N1C(=O)N(c2cc(Cl)cc(Cl)c2)C(=O)C1=Cc1ccc(C#N)cc1	212
